# Literature values as cited in patent US12090150B2, “Deuterated analogs of elacridar” (priority 2018, dated 2024).
# Key:
# [1] = system: P-gp/BCRP pumps located in the GI tract; conditions: cancer patients
# [2] = system: P-gp and BCRP at the blood brain barrier; conditions: rodents; morphine, amprenavir, imatinib, dasatinib, gefitinib, sorafenib, sunitinib
compound,measurement,setting,value
"COc1cc2c(cc1OC)CN(CCc1ccc(NC(=O)c3cccc4c(=O)c5cccc(OC)c5[nH]c34)cc1)CC2 [elacridar, 9,10-dihydro-5-methoxy-9-oxo-N-[4-[2-(1,2,3,4-tetrahydro-6,7-dimethoxy-2-isoquinolinyl)ethyl]phenyl]-4-acridine-carboxamide]",oral absorption of coadministered paclitaxel (P-gp substrate) and topotecan (BCRP substrate),[1],improved
same,increase of drug levels in the brain of coadministered pump substrates,[2],some success
same,solubility in water,,practically insoluble in water
